The nature of test [1]: DPPH radical scavenging. The note with it: compound 0.1 mM. How it is done:
S1 Antioxidant biological assay
The antioxidant activity of the compounds was evaluated via their ability to scavenge in
vitro free radicals such as DPPH and ABTS and to reduce H2O2. All the experiments were carried
S1.1 Determination of the reducing activity of the stable radical DPPH
To an ethanolic solution of DPPH (0.1 mM) an equal volume solution of the compounds
(0.1 mM) in ethanol was added. Absolute ethanol was also used as control solution. The absorbance
at 517 nm was recorded at room temperature after 30 and 60 min, in order to examine the possible
existence of a potential time–dependence of the DPPH radical scavenging activity [S1]. The DPPH–
scavenging activity of the compounds was expressed as the percentage reduction of the absorbance
values of the initial DPPH solution (DPPH%). NDGA and BHT were used as reference compounds. […]
A general note: The DPPH test is a chemical assay of radical scavenging.

In test [2] the target is CT DNA. The experiment in a line: CT DNA binding by UV-vis spectroscopy. Details: species or system calf. Particulars: Wolfe–Shimer equation. As for the experimental part:
page 8: […] spectroscopy, viscosity measurements and fluorescence emission spectroscopy studies. […] UV-vis spectroscopy was used for the evaluation of the interaction of the compounds with CT DNA, and specifically the possible binding modes of the compounds to CT DNA. Control experiments with DMSO were performed and no changes in the spectra of CT DNA were observed. In order to determine the binding mode, the UV-vis spectra of the compounds were […] concentrations of CT DNA for diverse r (r = [complex]/[DNA]) values. Effective use of the changes […] compounds were calculated by the Wolfe-[…] equation (eq. […] εf) versus [DNA]: (eq. S1) where [DNA] = the concentration of DNA in base pairs, ε f= the extinction coefficient for the free compound at the corresponding λmax, εA = Aobsd/[compound] and εb= the extinction coefficient for the compound in the fully bound form. K b is given by the ratio of slope to the y intercept in plots [DNA]/(εA-εf) versus [DNA]. S3.2 CT DNA-binding studies by viscosity measurements […] presence of increasing amounts of the compounds. The experiments were executed at room temperature and the measurements are devised in a plot (η/η 0)1/3 versus r, where η = the viscosity of DNA in the presence of the compound, and η0 = the viscosity of neat DNA in buffer solution. […] In order to determine and confirm the DNA-binding mode of the compounds, a competitive study with EB as an intercalating marker is performed by fluorescence emission spectroscopy. Therefore, the EB-displacing ability of the compounds from its EB-DNA conjugate was examined. […] solution (150 mM NaCl and 15 mM trisodium citrate at pH 7.0). The potential intercalation of the compounds between the DNA-bases was studied by the addition of a certain amount of the 8 (1 picture or pasted object on this page, not shown here)

For test [3], the target named is T1, BSA (Bos taurus, UniProt P02769).
T1 construct: purchased Sigma-Aldrich Co
T1 sequence (P02769 25-607): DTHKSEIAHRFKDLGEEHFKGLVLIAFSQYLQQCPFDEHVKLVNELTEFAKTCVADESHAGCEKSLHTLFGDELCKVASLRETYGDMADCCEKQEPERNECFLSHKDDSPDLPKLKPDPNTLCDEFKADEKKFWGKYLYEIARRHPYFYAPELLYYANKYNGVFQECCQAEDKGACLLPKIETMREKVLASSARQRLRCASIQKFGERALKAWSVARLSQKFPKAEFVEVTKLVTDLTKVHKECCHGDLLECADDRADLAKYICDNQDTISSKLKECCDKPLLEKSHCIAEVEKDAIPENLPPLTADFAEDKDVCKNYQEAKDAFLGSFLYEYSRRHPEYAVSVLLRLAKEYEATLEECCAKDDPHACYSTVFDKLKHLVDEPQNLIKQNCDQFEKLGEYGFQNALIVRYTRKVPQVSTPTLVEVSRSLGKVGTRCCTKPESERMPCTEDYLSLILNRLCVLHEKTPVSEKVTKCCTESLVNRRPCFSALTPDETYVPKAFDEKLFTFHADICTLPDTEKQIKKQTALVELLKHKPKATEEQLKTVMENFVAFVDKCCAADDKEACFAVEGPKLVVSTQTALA
As to the kind of experiment: BSA fluorescence quenching. The class given is binding, bovine. The note with it: for ΔΙ/Ιο (%) BSA fluorescence quenching: BSA 3 μM; for K BSA-binding constant: Scatchard; for relative BSA-fluorescence emission intensity, % of the initial: final value. As for the experimental part:
(§1) S4 Interaction with serum albumins
(§2) S4.1 Study of the affinity for serum albumins
(§3) The albumin–binding study for the compounds was carried out by fluorescence emission quenching experiments using BSA (3 μM) or HSA (3 μM) in buffer solution (15 mM trisodium citrate and 150 mM NaCl at pH 7.0). The tested compounds were used as quenchers with gradually increasing concentrations to monitor the quenching of the emission intensity of tryptophan residues of BSA at 345 nm or HSA at 340 nm [S6]. The fluorescence emission spectra were recorded between 300–500 nm with excitation wavelength of 295 nm. All the experiments were conducted at room temperature. The fluorescence spectra of the compounds were recorded under the same experimental conditions and presented a low–intensity emission band in the region 395–415 nm.
(§4) Consequently, the SA fluorescence emission spectra were modified properly, by subtracting the spectra of the compounds, and quantitative studies followed.
(§5) The extent of the inner–filter effect can be roughly estimated with the following formula: […]
(§6) where Icorr= corrected intensity, Imeas= the measured intensity, c = the concentration of the quencher, d = the cuvette length (1 cm), ε(λexc) and ε(λem) = the ε of the quencher at the excitation and the emission wavelength, respectively, as calculated from the UV –vis spectra of the complexes [S 8].
(§7) The interaction of the quencher (i.e. compounds) with serum albumins [S6] was studied through the Stern–Volmer and Scatchard equations [S6] and corresponding graphs. The values of the respective Stern–Volmer constant KSV (M–1), the quenching constant k q (M–1s–1), the SA– binding constant K (M–1) and the number of binding sites per albumin (n) were calculated.
(§8) According to Stern–Volmer quenching equation [S6] (eq. S2), where I 0 = the initial tryptophan fluorescence intensity of SA, I = the tryptophan fluorescence intensity of SA after the addition of the quencher, kq = the quenching rate constants of SA, K SV = the dynamic quenching constant, τ0 = the average lifetime of SA without the quencher, [Q] = the concentration of the quencher), the Stern –Volmer constant (KSV, M–1) can be obtained by the slope of the diagram I0/I versus [Q]. Taking τ0 = 10–8 s as fluorescence lifetime of tryptophan in SA [S2], the quenching constant (kq, M–1s–1) is calculated from equation S3.
(§9) From the Scatchard equation (eq. S5) [S6]: […]
(§10) (1 picture or pasted object on this page, not shown here) […]
(§11) where n = the number of binding sites per albumin and K = the SA–binding constant. The K constant (M−1) is calculated from the slope in plots (ΔI/I0)/[Q] versus (ΔI/I0) and n is given by the ratio of y intercept to the slope [S9]. […]

The target of test [4] is T2, HSA (Homo sapiens, UniProt P02768).
T2 construct: purchased Sigma-Aldrich Co
T2 sequence (P02768 25-609): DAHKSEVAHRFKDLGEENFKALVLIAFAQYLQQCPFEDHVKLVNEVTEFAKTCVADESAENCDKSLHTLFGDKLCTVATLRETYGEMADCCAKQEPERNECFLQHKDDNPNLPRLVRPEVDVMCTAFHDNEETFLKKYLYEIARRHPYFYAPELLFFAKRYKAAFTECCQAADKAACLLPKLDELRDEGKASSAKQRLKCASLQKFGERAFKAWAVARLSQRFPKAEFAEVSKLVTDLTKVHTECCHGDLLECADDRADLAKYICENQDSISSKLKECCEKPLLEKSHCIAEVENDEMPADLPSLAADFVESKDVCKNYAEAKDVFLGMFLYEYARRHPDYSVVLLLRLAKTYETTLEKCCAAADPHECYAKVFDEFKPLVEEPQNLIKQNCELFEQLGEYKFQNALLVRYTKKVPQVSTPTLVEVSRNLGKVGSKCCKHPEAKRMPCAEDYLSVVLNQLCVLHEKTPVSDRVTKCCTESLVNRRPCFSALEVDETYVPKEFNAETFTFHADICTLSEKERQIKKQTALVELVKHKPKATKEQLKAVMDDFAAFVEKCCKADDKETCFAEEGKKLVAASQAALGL
The experiment in a line: HSA fluorescence quenching. The class given is binding. The note with it: for ΔΙ/Ιο (%) HSA fluorescence quenching: HSA 3 μM; for K HSA-binding constant: Scatchard; for relative HSA-fluorescence emission intensity, % of the initial: final value. How it is done:
as §1, §2, §3, §4, §5, §6, §7, §8, §9, §10, §11

Test [5] addresses T1, BSA. The experiment in a line: Competitive BSA-fluorescence studies with warfarin and ibuprofen. The class given is binding, bovine. How it is done: where n = the number of binding sites per albumin and K = the SA–binding constant. The K constant (M−1) is calculated from the slope in plots (ΔI/I0)/[Q] versus (ΔI/I0) and n is given by the ratio of y intercept to the slope [S9].
S4.2 Competitive SA–fluorescence studies with warfarin and ibuprofen
The competitive studies with warfarin or ibuprofen (site probes) [S10] were performed by tryptophan fluorescence quenching experiments using a fixed concentration of the BSA and site probes (3 μM) in buffer (containing 15 mM trisodium citrate and 150 mM NaCl at pH 7.0). The fluorescence emission spectra were recorded in the presence of increasing amounts of the compounds as quenchers with an excitation wavelength of 295 nm. The Scatchard equation (eq. 7) [S6] and plots were applied on the corrected SA–fluorescence emission spectra in order to determine the BSA–binding constant of the compounds in the presence of warfarin or ibuprofen.

Setting [6] is: read-out: BSA-binding constant K, Marker: Ibuprofen, ibuprofen 3 μM.
Where [7] appears, read: read-out: BSA-binding constant K, Marker: Warfarin, warfarin 3 μM.

pKd: −log10 of the molar value.

For the compound `CCN(CC)c1ccc(C=O)c(O)c1` [4-Et2N-saloH, 4-diethylamino-salicylaldehyde, reference compound], the “DPPH% (30 min)” value in test [1] is 2.47 ± 0.09%. Besides, in test [1], the “DPPH% (60 min)” value is recorded as 3.20 ± 0.08%. Further, the “Kb (DNA-binding constant)” value in test [2] was 5.06 (±0.14) × 10^5 M^−1. Moreover, the pKd in test [3] is 5.62; in test [4] it was 5.61; in test [5], 5.62; in test [5] (setting [6]), 4.69; in test [5] (setting [7]), 5.12. In test [3], the “kq BSA-quenching constant” value is reported as 1.41 (±0.06) × 10^13 M^−1 s^−1. In addition, in test [4], the “kq HSA-quenching constant” value is recorded as 2.10 (±0.22) × 10^13 M^−1 s^−1.
On to `COc1ccc(C=O)c(O)c1` [4-OMe-saloH, 4-methoxy-salicylaldehyde, reference compound], for which the “DPPH% (30 min)” value in test [1] is given as 4.16 ± 0.10%. Also, the “DPPH% (60 min)” value in test [1] is on record as 6.27 ± 0.25%. For the same compound, the pKd is 4.99 in test [4], 5.61 in test [5], 4.90 in test [5] (setting [6]) and 4.16 in test [5] (setting [7]). In addition, the “kq HSA-quenching constant” value in test [4] is reported as 2.28 (±0.13) × 10^12 M^−1 s^−1.
For `O=Cc1cc(F)ccc1O` [5-F-saloH, 5-fluoro-salicylaldehyde, reference compound], the “DPPH% (30 min)” value in test [1] came out at 3.96 ± 1.16%. Also, in test [1], the “DPPH% (60 min)” value is given as 5.56 ± 1.06%. Also, in test [2], the “Kb (DNA-binding constant)” value is recorded as 8.37 (±0.47) × 10^4 M^−1. Also, the pKd in test [3] was 4.63; in test [4], 4.67; in test [5] it was 4.63; in test [5] (setting [6]), 4.66; in test [5] (setting [7]), 4.48. In addition, the “kq BSA-quenching constant” value in test [3] was 1.98 (±0.08) × 10^12 M^−1 s^−1. For the same compound, the “kq HSA-quenching constant” value in test [4] was 1.96 (±0.07) × 10^12 M^−1 s^−1.
Take `CCN(CC)c1ccc(C=O)c([O][Pd][O]c2cc(N(CC)CC)ccc2C=O)c1` [Complex 1, [Pd(4-Et2N-salo)2]]: in test [1], the “DPPH% (30 min)” value was found to be 2.45 ± 0.09% and the “DPPH% (60 min)” value worked out at 4.00 ± 0.53%. In addition, the “Kb (DNA-binding constant)” value in test [2] is given as 3.66 (±0.22) × 10^5 M^−1. In test [3], the “kq BSA-quenching constant” value is on record as 5.72 (±0.44) × 10^13 M^−1 s^−1; the “ΔΙ/Ιο (%) BSA fluorescence quenching” value stood at 92.9%; the “K BSA-binding constant” value is recorded as 1.08 (±0.06) × 10^5 M^−1; the “relative BSA-fluorescence emission intensity, % of the initial” value came out at 7.2%. In addition, in test [4], the “kq HSA-quenching constant” value is on record as 3.48 (±0.14) × 10^13 M^−1 s^−1; the “ΔΙ/Ιο (%) HSA fluorescence quenching” value is 91.8%; the “K HSA-binding constant” value was 1.25 (±0.06) × 10^5 M^−1; the “relative HSA-fluorescence emission intensity, % of the initial” value is reported as 8.2%. Further, in test [5] (ibuprofen 3 μM), the “BSA-binding constant K, Marker: Ibuprofen” value is recorded as 8.94 (±0.63) × 10^4 M^−1. Moreover, the “BSA-binding constant K, No Marker” value in test [5] is 1.08 (±0.06) × 10^5 M^−1. For the same compound, in test [5] (warfarin 3 μM), the “BSA-binding constant K, Marker: Warfarin” value is listed as 9.34 (±0.60) × 10^4 M^−1.
As for `O=Cc1cc(Br)cc(Br)c1[O][Pd][O]c1c(Br)cc(Br)cc1C=O` [Complex 2, [Pd(3,5-diBr-salo)2]], in test [1], the “DPPH% (30 min)” value amounted to 7.99 ± 0.24% and the “DPPH% (60 min)” value was 14.63 ± 0.53%. For the same compound, the “Kb (DNA-binding constant)” value in test [2] is 3.18 (±0.21) × 10^5 M^−1. In test [3], the “kq BSA-quenching constant” value was 2.11 (±0.08) × 10^14 M^−1 s^−1; the “ΔΙ/Ιο (%) BSA fluorescence quenching” value came to 97.5%; the “K BSA-binding constant” value is recorded as 1.50 (±0.06) × 10^6 M^−1; the “relative BSA-fluorescence emission intensity, % of the initial” value came out at 2.5%. Besides, in test [4], the “kq HSA-quenching constant” value is 4.22 (±0.13) × 10^13 M^−1 s^−1; the “ΔΙ/Ιο (%) HSA fluorescence quenching” value is 88.8%; the “K HSA-binding constant” value is recorded as 4.12 (±0.15) × 10^5 M^−1; the “relative HSA-fluorescence emission intensity, % of the initial” value came to 11.2%. Also, the “BSA-binding constant K, Marker: Ibuprofen” value in test [5] (ibuprofen 3 μM) is on record as 1.05 (±0.09) × 10^5 M^−1. The “BSA-binding constant K, No Marker” value in test [5] is 1.50 (±0.06) × 10^6 M^−1. Moreover, the “BSA-binding constant K, Marker: Warfarin” value in test [5] (warfarin 3 μM) is 9.64 (±0.70) × 10^4 M^−1.

The values above are taken from article PMC9323974, “Palladium(II) Complexes of Substituted Salicylaldehydes: Synthesis, Characterization and Investigation of Their Biological Profile” (Pharmaceuticals, 2022).
